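Results reflect a 48-hour exposure of cells in 96-well plates to compound at five concentrations. GI50: concentration for 50% inhibition of growth.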 Active and inactive are the calls of the source. Rule as the data show it: active = GI50 up to about 1.1 µM and inactive = higher.
Key:
Assay in all cases: NCI tumour cell line growth inhibition, 48 h
UACC-62 = system: UACC-62
SNB-75 = system: SNB-75
HOP-92 = system: HOP-92
OVCAR-8 = system: OVCAR-8
NCI-H460 = system: NCI-H460
LOX IMVI = system: LOX IMVI
DU-145 = system: DU-145
786-0 = system: 786-0
M14 = system: M14
PC-3 = system: PC-3
SK-MEL-5 = system: SK-MEL-5
Malme-3M = system: Malme-3M
K562 = system: K562
SF-268 = system: SF-268
A549 = system: A549
HT-29 = system: HT-29
SW-620 = system: SW-620
SNB-19 = system: SNB-19
NCI-H226 = system: NCI-H226
KM12 = system: KM12

Measured: GI50

Cc1c(C)c(C)c(CC2(C)CSC2)c(CC2(C)CSC2)c1C
inactive: UACC-62 > 100 µM | SNB-75 > 100 µM | HOP-92 > 100 µM | OVCAR-8 > 100 µM | NCI-H460 > 100 µM | LOX IMVI > 100 µM | DU-145 > 100 µM | 786-0 > 100 µM | M14 > 100 µM | PC-3 > 100 µM | SK-MEL-5 > 100 µM | Malme-3M > 100 µM | K562 > 100 µM | SF-268 > 100 µM | A549 > 100 µM | HT-29 > 100 µM | SW-620 > 100 µM | SNB-19 > 100 µM | NCI-H226 > 100 µM

CCN(C(=O)N[C@@H](Cc1ccccc1)C(=O)N[C@@H](CC(C)C)C(=O)NC)c1ccccc1
inactive: UACC-62 > 100 µM | SNB-75 95.3 µM | KM12 > 100 µM | HOP-92 > 100 µM | OVCAR-8 > 100 µM | NCI-H460 > 100 µM | LOX IMVI > 100 µM | DU-145 > 100 µM | 786-0 > 100 µM | M14 > 100 µM | PC-3 > 100 µM | SK-MEL-5 > 100 µM | Malme-3M > 100 µM | K562 > 100 µM | A549 > 100 µM | HT-29 > 100 µM | SW-620 > 100 µM | SNB-19 > 100 µM | NCI-H226 > 100 µM

OCC1C(O)C(O)[C@@H]2SCCN12 (some centres undefined)
inactive: UACC-62 > 100 µM | SNB-75 > 100 µM | KM12 > 100 µM | HOP-92 > 100 µM | OVCAR-8 > 100 µM | NCI-H460 > 100 µM | LOX IMVI > 100 µM | DU-145 > 100 µM | 786-0 > 100 µM | M14 > 100 µM | PC-3 > 100 µM | SK-MEL-5 > 100 µM | Malme-3M > 100 µM | K562 > 100 µM | SF-268 > 100 µM | A549 > 100 µM | HT-29 > 100 µM | SW-620 > 100 µM | SNB-19 > 100 µM | NCI-H226 > 100 µM

COc1ccc(CSCc2cc(OC)c(OC)c(OC)c2)cc1
inactive: UACC-62 > 43 µM | SNB-75 37.5 µM | KM12 27.1 µM | HOP-92 23.9 µM | OVCAR-8 > 31.6 µM | NCI-H460 > 100 µM | LOX IMVI 28.4 µM | DU-145 > 100 µM | 786-0 > 100 µM | M14 > 54.5 µM | PC-3 > 31.6 µM | SK-MEL-5 21.2 µM | Malme-3M > 31.6 µM | K562 33.8 µM | SF-268 > 100 µM | A549 > 100 µM | HT-29 > 100 µM | SW-620 > 83.2 µM | SNB-19 > 68.1 µM | NCI-H226 > 100 µM

COc1ccc2c(c1)-c1c(c3ccccc3n1CCN1CCOCC1)CC2
inactive: UACC-62 18.8 µM | SNB-75 10.8 µM | KM12 11.5 µM | HOP-92 36.6 µM | OVCAR-8 16 µM | NCI-H460 16.8 µM | LOX IMVI 16.6 µM | DU-145 58.9 µM | 786-0 22.6 µM | M14 35 µM | PC-3 14.8 µM | SK-MEL-5 14.5 µM | Malme-3M 14.6 µM | K562 15.6 µM | SF-268 19 µM | A549 27.1 µM | HT-29 13.1 µM | SW-620 32.1 µM | SNB-19 21 µM | NCI-H226 11.7 µM

CN(C)CCOC1(CC2CCCCC2)CCC(C(C)(C)C)CC1 (centres undefined)
inactive: UACC-62 7.8 µM | SNB-75 6.81 µM | KM12 4.27 µM | HOP-92 5.73 µM | OVCAR-8 6.82 µM | NCI-H460 3.67 µM | LOX IMVI 2.73 µM | DU-145 7.01 µM | 786-0 2.48 µM | M14 2.14 µM | PC-3 4.1 µM | SK-MEL-5 2.3 µM | Malme-3M 2.83 µM | K562 2.04 µM | SF-268 10.5 µM | A549 5.56 µM | HT-29 2.43 µM | SW-620 4.12 µM | SNB-19 8.43 µM | NCI-H226 6.84 µM

COc1ccc(NC(C)=O)cc1N1C(=O)/C(=C\c2cc(OC)c(OC)c(OC)c2)SC1c1ccccc1 (centres undefined)
inactive: UACC-62 67.9 µM | SNB-75 26.9 µM | KM12 40.6 µM | HOP-92 29.5 µM | OVCAR-8 48.1 µM | NCI-H460 43.2 µM | LOX IMVI 39.3 µM | DU-145 91.4 µM | 786-0 54 µM | M14 49.8 µM | PC-3 31.5 µM | SK-MEL-5 33.7 µM | Malme-3M 47 µM | K562 30.9 µM | A549 57.8 µM | HT-29 47.1 µM | SW-620 52.7 µM | SNB-19 83.4 µM | NCI-H226 50.9 µM

COC1CC(N)C(O)C(C)O1 (centres undefined)
inactive: UACC-62 > 100 µM | SNB-75 > 100 µM | KM12 > 100 µM | HOP-92 > 100 µM | OVCAR-8 > 100 µM | NCI-H460 > 100 µM | LOX IMVI > 100 µM | DU-145 > 100 µM | 786-0 > 100 µM | M14 > 100 µM | PC-3 > 100 µM | SK-MEL-5 > 100 µM | Malme-3M > 100 µM | K562 > 100 µM | SF-268 > 100 µM | HT-29 > 100 µM | SW-620 > 100 µM | SNB-19 > 100 µM | NCI-H226 > 100 µM

NS(=O)(=O)c1ccc(N2C(=O)C(=O)N(c3ccccc3)C2=S)cc1
inactive: UACC-62 > 100 µM | SNB-75 74.3 µM | KM12 > 100 µM | HOP-92 23.6 µM | OVCAR-8 > 100 µM | NCI-H460 > 100 µM | LOX IMVI > 100 µM | DU-145 > 100 µM | 786-0 > 100 µM | PC-3 > 100 µM | SK-MEL-5 97.1 µM | Malme-3M > 100 µM | K562 > 100 µM | SF-268 > 100 µM | A549 > 100 µM | HT-29 > 100 µM | SW-620 > 100 µM | SNB-19 > 100 µM | NCI-H226 61.1 µM

N=C(N)SCc1ccc(N=C=S)cc1
inactive: UACC-62 11.4 µM | SNB-75 10.2 µM | KM12 14.3 µM | HOP-92 11.7 µM | OVCAR-8 15.2 µM | NCI-H460 14.9 µM | LOX IMVI 12.8 µM | DU-145 15.9 µM | 786-0 13.8 µM | PC-3 15.9 µM | SK-MEL-5 14 µM | Malme-3M 14.3 µM | K562 11.7 µM | SF-268 20.2 µM | A549 16.3 µM | HT-29 15.1 µM | SW-620 12.9 µM | SNB-19 13.8 µM | NCI-H226 15.6 µM

— ChEMBL document CHEMBL1201862, “PubChem BioAssay data set” (2004)
